Marks after values point to notes of the source that are not given here.
What was measured:
Human dendritic cells [1] = assay: CD80 levels at the DC cell surface (flow cytometry); format: cell-based; conditions: 100 μg, 48 hours
Summary of the method: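 Human dendritic cells from two donors, at 1.0×10^5 cells/ml, were exposed 48 h to 100 μg of 6-base polynucleotides. Surface CD80 was measured by flow cytometry with a FITC anti-CD80 antibody. Values are % CD80^hi DC.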

female BALB/C mice [2] = assay: Vaccination with hepatitis surface antigen (intramuscular), anti-HbsAg end-point dilution ELISA; format: in vivo
Method: Immunization with recombinant hepatitis B surface antigen (HbsAg; Cortex Biochemical, San Leandro, Calif., USA) combined with aluminum hydroxide (Alum; SuperFos Biosector, Vedback, Denmark) and/or with N3A, N6A or N6B polynucleotides, was conducted on 6-8 week old female BALB/C mice (Charles River, St-Constant, Qc, Canada). Each mouse (5 mice per group) received a single intramuscular injection into the tibialis muscle of a solution containing: Saline (Group 1), HbsAg 1 μg (Group 2), HbsAg 1 μg+Alum 10 μg (Group 3), HbsAg 1 μg+Alum 10 μg+N3A 10 μg (Group 4), HbsAg 1 μg+Alum 10 μg+N3A 100 μg (Group 5), HbsAg 1 μg+Alum 10 μg+N3B10 μg (Group 6), HbsAg 1 μg+Alum 10 μg+N3B100 μg (Group 7), HbsAg 1 μg+Alum 10 μg+N6A 10 μg (Group 8), HbsAg 1 μg+Alum 10 μg+N6A 100 μg (Group 9), HbsAg 1 μg+Alum 10 μg+N6B 10 μg (Group 10) and HbsAg 1 μg+Alum 10 μg+N6B 100 μg (Group 11) in a total volume of 50 μl at day 0 and day 21. Plasma was recovered at day 31.
Antibodies specific to HbsAg were detected and quantified by end-point dilution assay ELISA. Briefly, a solid phase of HbsAg protein (0.1 μg per well, overnight at 4° C.) was used to capture anti-HbsAg in the plasma (1 hour at 37° C.), which were then detected with horseradish peroxidase-conjugated goat anti-mouse IgG (total), IgG1 and IgG2a following the instructions of the manufacturer (Clonetyping system, Southern Biotechnology Inc., Birmingham, Ala., USA). […] Data are expressed in Table 13 as the mean±SD of 5 mice per group.

Human dendritic cells [3] = assay: MHC-II levels at the DC cell surface (flow cytometry); format: cell-based; conditions: DC from individual B; 100 μg, 48 hours
Summary of the method: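 Dendritic cells from one donor were seeded at 1.0×10^5 cells/ml and treated for 48 h with 100 μg of 6-base polynucleotides. Surface MHC II was then measured by flow cytometry with a FITC-conjugated anti-MHC II antibody. Values are the percentage of MHC II^hi DC.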

Human dendritic cells [4] = assay: OX-2 levels at the DC cell surface (flow cytometry); format: cell-based; conditions: DC from individual A, 48 hours
Method: Human dendritic cells were obtained from Clonetics (San Diego, Calif., USA) and were cultured in the medium recommended by Clonetics. DC were obtained from three different individuals (see Table 1). Major histocompatability typing was performed on each of these individuals and several of the HLA (human leukocyte antigens) types are shown.
DC from individual A were seeded in 1.0 ml at 1.0×10^5 cells/ml in 6-well flat-bottomed tissue culture plates for 48 hours with 1, 10 or 100 μg of 6 base N3A or N6A polynucleotides. The level of OX-2 at the cell surface was determined after 48 hours of incubation by flow cytometry using a FITC-conjugated monoclonal antibody directed to OX-2 (BioSPARK, Greenwich, Conn., USA) and analyzed by CELLQuest Pro. […] Results are expressed as the percentage of OX-2^hi DC following treatment.

female BALB/C mice [5] = assay: Oral vaccination with hepatitis surface antigen, anti-HbsAg ELISA; format: in vivo; conditions: oral day 0, 7, 14, 450 nm; for IgA total at 1:2 dilution, mean ± SD: gut washes day 21; for Total IgG at 1:32 dilution, mean ± SD: plasma day 21
Method: Immunization with recombinant hepatitis B surface antigen combined with N6A or N6B polynucleotide was conducted on 6-8 week old female BALB/C mice (Charles River, St-Constant, Qc, Canada). Each mouse (5 mice per group) has received orally a solution containing: Saline (Group 1), HbsAg 10 μg (Group 2), HbsAg 10 μg+N6A 1 μg (Group 3), HbsAg 10 μg+N6A 10 μg (Group 4), HbsAg 10 μg+N6A 100 μg (Group 5), HbsAg 10 μg+N6B 1 μg (Group 6), HbsAg 10 μg+N6B 10 μg (Group 7) and HbsAg 10 μg+N6B 100 μg (Group 8) in a total volume of 50 μl at day 0, 7 and day 14. Plasma and gut washes were recovered at day 21. Gut washes (for IgA determination) were obtained by gently pipetting 0.2 ml of PBS containing protease inhibitors (10 μg pepstatin, 10 μg leupeptin, 10 μg antipain and 50 μg benzamidine).
Antibodies specific to HbsAg were detected and quantified by ELISA. Briefly, a solid phase of HbsAg protein (1.0 μg per well, overnight at 4° C.) was used to capture anti-HbsAg in the plasma or in the gut washes (1 hour at 37° C.), which were then detected with horseradish peroxidase-conjugated goat anti-mouse IgA (for gut washes) and goat anti-mouse total IgG (for plasma) following the instructions of the manufacturer (Clonetyping system, Southern Biotechnology Inc.). Data are expressed in Table 14 in OD (450 nm) as the mean±SD of 5 mice per group. […]

[6] = HbsAg 1 μg + Alum 10 μg + polynucleotide 10 μg i.m. day 0 and 21, plasma day 31
[7] = HbsAg 1 μg + Alum 10 μg + polynucleotide 100 μg i.m. day 0 and 21, plasma day 31
[8] = HbsAg 10 μg + polynucleotide 1 μg
[9] = HbsAg 10 μg + polynucleotide 10 μg
[10] = HbsAg 10 μg + polynucleotide 100 μg

Substance | The percentage of CD80^hi DC following treatment (Human dendritic cells [1]; DC from individual B) | The percentage of CD80^hi DC following treatment (Human dendritic cells [1]; DC from individual C) | End-point titers IgG1, mean ± SD (female BALB/C mice [2]; [6]) | End-point titers IgG2a, mean ± SD (female BALB/C mice [2]; [6]) | End-point titers IgG total, mean ± SD (female BALB/C mice [2]; [6]) | End-point titers IgG1, mean ± SD (female BALB/C mice [2]; [7]) | End-point titers IgG2a, mean ± SD (female BALB/C mice [2]; [7]) | End-point titers IgG total, mean ± SD (female BALB/C mice [2]; [7]) | The percentage of MHC-II^hi DC following treatment (Human dendritic cells [3]) | The percentage of OX-2^hi DC following treatment (Human dendritic cells [4]; 1.0 μg) | The percentage of OX-2^hi DC following treatment (Human dendritic cells [4]; 10.0 μg) | The percentage of OX-2^hi DC following treatment (Human dendritic cells [4]; 100.0 μg) | IgA total at 1:2 dilution, mean ± SD (female BALB/C mice [5]; [8]) | Total IgG at 1:32 dilution, mean ± SD (female BALB/C mice [5]; [8]) | IgA total at 1:2 dilution, mean ± SD (female BALB/C mice [5]; [9]) | Total IgG at 1:32 dilution, mean ± SD (female BALB/C mice [5]; [9]) | IgA total at 1:2 dilution, mean ± SD (female BALB/C mice [5]; [10]) | Total IgG at 1:32 dilution, mean ± SD (female BALB/C mice [5]; [10])
5′GGGTGG3′ [N3A] | 12% | 18% | 9300 ± 3365 | 272 ± 255 | 849 ± 386 | 13320 ± 12993 | 860 ± 719 | 1985 ± 1748 | 23% | 61% | 51** % | 51** % |  |  |  |  |  | 
5′GGGTGG3′ [N3B] | 5% | 3% | 3460 ± 1680 | 120 ± 26 | 287 ± 142 | 4460 ± 1884 | 204 ± 129 | 437 ± 305 | 25% |  |  |  |  |  |  |  |  | 
5′GGGAGG3′ [N6B] (DNA, backbone not given here; further chemistry not fully specified) | 4% | 4% | 2880 ± 1126 | 187 ± 46 | 551 ± 309 | 3560 ± 1210 | 205 ± 76 | 660 ± 364 | 27% |  |  |  | 0.549 ± 0.242 OD | 0.104 ± 0.030 OD | 0.333 ± 0.156 OD | 0.225 ± 0.135 OD | 0.492 ± 0.074 OD | 0.120 ± 0.057 OD
5′GGGAGG3′ [N6A] (unmodified DNA) | 15% | 17% | 2010 ± 2187 | 250 ± 257 | 439 ± 705 | 6420 ± 2528 | 291 ± 154 | 1185 ± 607 | 25% | 64% | 62% | 64% | 0.662 ± 0.166 OD | 0.138 ± 0.055 OD | 0.853 ± 0.543 OD | 0.141 ± 0.044 OD | 0.650 ± 0.276 OD | 0.121 ± 0.055 OD
